These molecules were tested on A549 cells (assay: Cell viability by MTT method in A549 cells). Settings: 72 hours treatment.
Type: cell-based
Parameters: concentration or dose not given beside the values

SMILES | Cell Viability (% inhibition) (A549)
Cc1ccc(S(=O)(=O)N[C@@H](Cn2cnc3ccccc32)C(=O)Nc2ccc(N3CCOCC3)cc2)cc1 [Compound 138, (S)-3-(1H-benzo[d]imidazol-1-yl)-2-(4-methylphenylsulfonamido)-N-(4-morpholinophenyl)propanamide] | 14.63 ± 1.98%
Cc1ccc(S(=O)(=O)N[C@H](Cn2c(=O)c(=O)[nH]c3ccccc32)C(=O)Nc2ccc(N3CCOCC3)cc2)cc1 [Compound 139, (R)-3-(2,3-dioxo-3,4-dihydroquinoxalin-1(2H)-yl)-2-(4-methylphenylsulfonamido)-N-(4-morpholinophenyl)propanamide] | 9.99 ± 0.24%
Cc1ccc(S(=O)(=O)N[C@@H](CCCCNC(=O)c2ccc(C(F)(F)F)cn2)C(=O)Nc2ccc(N3CCOCC3)cc2)cc1 [Compound 140, (S)—N-(5-(4-methylphenylsulfonamido)-6-(4-morpholinophenylamino)-6-oxohexyl)-5-(trifluoromethyl)picolinamide] | 86.68 ± 1.25%
Cc1ccc(S(=O)(=O)N[C@@H](CCC(=O)OCc2ccccc2)C(=O)Nc2ccc(N3CCOCC3)cc2)cc1 [Compound 141, (S)-Benzyl 4-(4-methylphenylsulfonamido)-5-(4-morpholinophenylamino)-5-oxopentanoate] | 40.15 ± 6.15%
Cc1ccc(S(=O)(=O)N[C@@H](CC(=O)OCc2ccccc2)C(=O)Nc2ccc(N3CCOCC3)cc2)cc1 [Compound 142, (S)-Benzyl 3-(4-methylphenylsulfonamido)-4-(4-morpholinophenylamino)-4-oxobutanoate] | 15.9 ± 4.84%
CC(C)C[C@H](NS(=O)(=O)c1ccc(C(=O)O)cc1)C(=O)N1CCOCCOCCOCC1 [Compound 157, (S)-4-(N-(4-methyl-1-oxo-1-(1,4,7-trioxa-10-azacyclododecan-10-yl)pentan-2-yl)sulfamoyl)benzoic acid] | 64.40 ± 2.96%
Cc1ccc(S(=O)(=O)N[C@@H](Cc2c[nH]c3ccccc23)C(=O)NNC(=O)c2ccc(N3CCOCC3)cc2)cc1 [Compound 163, (S)—N-(3-(1H-indol-3-yl)-1-(2-(4-morpholinobenzoyl)hydrazinyl)-1-oxopropan-2-yl)-4-methylbenzenesulfonamide] | 18.63 ± 9.48%
Cc1ccc(S(=O)(=O)N[C@@H](Cc2c[nH]c3ccccc23)C(=O)Nc2nc(-c3ccc(N4CCOCC4)cc3)cs2)cc1 [Compound 164, (S)-3-(1-indol-3-yl)-2-(4-methylphenylsulfonamido)-N-(4-(4-morpholinophenyl)thiazol-2-yl)propanamide] | 88.05 ± 0.8%
COC(=O)c1ccc(-c2csc(NC(=O)[C@H](Cc3c[nH]c4ccccc34)NS(=O)(=O)c3ccc(C)cc3)n2)cc1 [Compound 165, (S)-Methyl 4-(2-(3-(1H-indol-3-yl)-2-(4-methylphenylsulfonamido)propanamido)thiazol-4-yl)benzoate] | 78.22 ± 0.97%
O=C(OCc1ccccc1)[C@H](Cc1c[nH]c2ccccc12)NS(=O)(=O)c1ccc(C(F)(F)F)nc1 [Compound 166, (S)-Benzyl 3-(1H-indol-3-yl)-2-(6-(trifluoromethyl)pyridine-3-sulfonamido)propanoate] | 97.48 ± 1%
Cc1ccc(S(=O)(=O)N[C@@H](CCC(=O)Nc2ccc([N+](=O)[O-])cc2)C(=O)Nc2ccc(N3CCOCC3)cc2)cc1 [Compound 167, (S)-2-(4-Methylphenylsulfonamido)-N^1-(morpholinophenyl)-N^5-(4-nitrophenyl)pentanediamide] | 85.33 ± 1.28%
Cc1ccc(S(=O)(=O)N[C@@H](CCCCNC(=O)OCc2ccccc2)C(=O)Nc2ccc(N3CCOCC3)cc2)cc1 [Compound 168, (S)-Benzyl 5-(4-methylphenylsulfonamido)-6-(4-morpholinophenylamino)-6-oxohexylcarbamate] | 84.11 ± 1.25%
Cc1ccc(S(=O)(=O)N[C@@H](CCCCN)C(=O)Nc2ccc(N3CCOCC3)cc2)cc1 [Compound 169, (S)-6-Amino-2-(4-methylphenylsulfonamido)-N-(4-morpholinophenyl)hexanamide] | 3.97 ± ? .91%
COc1cc(OC)cc(C(=O)NCCCC[C@H](NS(=O)(=O)c2ccc(C)cc2)C(=O)Nc2ccc(N3CCOCC3)cc2)c1 [Compound 170, (S)-3,5-Dimethoxy-N-(5-(4-methylphenylsulfonamido)-6-(4-morpholinophenylamino)-6-oxohexyl)benzamide] | 31.41 ± 4.96%
COc1ccc(CNC(=O)CC[C@H](NS(=O)(=O)c2ccc(C)cc2)C(=O)Nc2ccc(N3CCOCC3)cc2)cc1 [Compound 171, (S)—N^5-(4-Methoxybenzyl)-2-(4-methylphenylsulfonamido)-N^1-(4-morpholinophenyl)pentanediamide] | 40.19 ± 4.29%
Cc1ccc(S(=O)(=O)N[C@@H](CCC(=O)Nc2ccccc2)C(=O)Nc2ccc(N3CCOCC3)cc2)cc1 [Compound 172, (S)-2-(4-Methylphenylsulfonamido)-N^1-(4-morpholinophenyl)-N^5-phenylpentanediamide] | −2.14 ± ? .1%
Cc1ccc(S(=O)(=O)N[C@@H](CCC(=O)N2CCOCC2)C(=O)Nc2ccc(N3CCOCC3)cc2)cc1 [Compound 173, (S)-2-(4-Methylphenylsulfonamido)-5-morpholino-N-(4-morpholinophenyl)-5-oxopentanamide] | 0.1 ± 5.51%
Cc1ccc(S(=O)(=O)N[C@@H](CCC(=O)Nc2ccc(F)cc2)C(=O)Nc2ccc(N3CCOCC3)cc2)cc1 [Compound 174, (S)—N^5-(4-fluorophenyl)-2-(4-methylphenylsulfonamido)-N^1-(4-morpholinophenyl)pentanediamide] | 10.8 ± 2.26%
Cc1ccc(S(=O)(=O)N[C@@H](CCC(=O)Nc2ccc(C(C)(C)C)cc2)C(=O)Nc2ccc(N3CCOCC3)cc2)cc1 [Compound 175, (S)—N^5-(4-tert-butylphenyl)-2-(4-methylphenylsulfonamido)-N^1-(4-morpholinophenyl)pentanediamide] | 28.4 ± 4.82%
Cc1ccc(S(=O)(=O)N[C@@H](CC(=O)Nc2ccc([N+](=O)[O-])cc2)C(=O)Nc2ccc(N3CCOCC3)cc2)cc1 [Compound 177, (S)-2-(4-Methylphenylsulfonamido)-N^1-(4-morpholinophenyl)-N^4-(4-nitrophenyl)succinamide] | 53.91 ± 0.92%
O=C([C@H](Cc1c[nH]c2ccccc12)NS(=O)(=O)c1ccc(Br)cc1)n1ccc(-c2ccccc2)n1 [Compound 185, (S)—N-(3-(1H-indol-3-yl)-1-oxo-1-(3-phenyl-1H-pyrazol-1-yl)propan-2-yl)-4-bromobenzenesulfonamide] | 13.09 ± 18.13%
CCCCCCCCCCCC(=O)NNC(=O)[C@H](Cc1c[nH]c2ccccc12)NS(=O)(=O)c1ccc(Br)cc1 [Compound 194, (S)-4-Bromo-N-(1-(2-dodecanoylhydrazinyl)-3-(1H-indol-3-yl)-1-oxopropan-2-yl)benzenesulfonamide] | 86.99 ± 0.6%

Source: patent US20220204497A1, “NOVEL COMPOUND HAVING ANTICANCER ACTIVITY, AND METHOD FOR PRODUCING SAME” (MEDICINAL BIOCONVERGENCE RESEARCH CENTER, priority 2019, published 2022)
